Species on record: Rattus norvegicus
Assay: DrugMatrix - Regimen: Daily Repeat
Type: toxicity, organism-based, Sprague-Dawley
Parameters: regimen Daily Repeat, gender Male, age 6-8 weeks
Details: in vivo, po, route oral GAVAGE; for ALANINE AMINOTRANSFERASE / ALBUMIN / ALKALINE PHOSPHATASE / ASPARTATE AMINOTRANSFERASE / BLOOD UREA NITROGEN / CARBON DIOXIDE / CHLORIDE / CHOLESTEROL / CREATINE PHOSPHOKINASE / CREATININE / GLUCOSE / LACTATE DEHYDROGENASE / LIPASE / PHOSPHORUS / POTASSIUM / SODIUM / TOTAL BILIRUBIN / TOTAL PROTEIN / URIC ACID: tissue Plasma
[1] = 0 mg/kg, 120 h, tissue Blood, dose level Control, time 5 day, vehicle 100 % WATER
[2] = 0 mg/kg, 120 h, dose level Control, time 5 day, […]
[3] = 0 mg/kg, 120 h, dose level Control, time 5 day, vehicle 100 % WATER
[4] = 20 mg/kg, 72 h, tissue Blood, dose level Low, time 3 day, […]
[5] = 20 mg/kg, 72 h, dose level Low, time 3 day, […]
[6] = 20 mg/kg, 120 h, tissue Blood, dose level Low, time 5 day, […]

SMILES: Cn1cnc([N+](=O)[O-])c1Sc1ncnc2nc[nH]c12 [AZATHIOPRINE]
- ABSOLUTE LYMPHOCYTE [1]: 8181 CELLS/uL
- ABSOLUTE MONOCYTE [1]: 82.67 CELLS/uL
- ABSOLUTE SEGMENTED NEUTROPHIL [1]: 435.17 CELLS/uL
- EOSINOPHIL [1]: 0.5%
- HEMATOCRIT [1]: 33.83%
- HEMOGLOBIN [1]: 13.37 G/DL
- LEUKOCYTE COUNT [1]: 8.73 x10E3/uL
- LYMPHOCYTE [1]: 93.5%
- MEAN CORPUSCULAR HEMOGLOBIN [1]: 25.2 pg
- MEAN CORPUSCULAR HEMOGLOBIN CONCENTRATION [1]: 39.53 G/DL
- MEAN CORPUSCULAR VOLUME [1]: 63.73 fL
- MONOCYTE [1]: 1%
- NEUTROPHIL [1]: 5%
- NUCLEATED RED BLOOD CELLS [1]: 0 /100WBC
- PLATELET COUNT [1]: 1057.33 x10E3/uL
- ALANINE AMINOTRANSFERASE [2]: 59.67 u/L
- ALBUMIN [2]: 3.87 G/DL
- ALKALINE PHOSPHATASE [2]: 452 u/L
- ASPARTATE AMINOTRANSFERASE [2]: 81.33 u/L
- BLOOD UREA NITROGEN [2]: 13.67 mg/dL
- CARBON DIOXIDE [2]: 26.33 mmol/L
- CHLORIDE [2]: 103.67 MEQ/L
- CHOLESTEROL [2]: 65.67 mg/dL
- CREATINE PHOSPHOKINASE [2]: 355.33 u/L
- CREATININE [2]: 0.14 mg/dL
- GLUCOSE [2]: 171.33 mg/dL
- LACTATE DEHYDROGENASE [2]: 118 u/L
- LIPASE [2]: 11.33 u/L
- PHOSPHORUS [2]: 11.13 mg/dL
- POTASSIUM [2]: 5.18 MEQ/L
- SODIUM [2]: 143.17 MEQ/L
- TOTAL BILIRUBIN [2]: 0.2 mg/dL
- TOTAL PROTEIN [2]: 5.87 G/DL
- URIC ACID [2]: 0.63 mg/dL
- ALANINE AMINOTRANSFERASE [3]: 54.33 u/L
- ALBUMIN [3]: 4.07 G/DL
- ALKALINE PHOSPHATASE [3]: 308.67 u/L
- ASPARTATE AMINOTRANSFERASE [3]: 83.17 u/L
- BLOOD UREA NITROGEN [3]: 14 mg/dL
- CARBON DIOXIDE [3]: 34 mmol/L
- CHLORIDE [3]: 98 MEQ/L
- CHOLESTEROL [3]: 71.33 mg/dL
- CREATINE PHOSPHOKINASE [3]: 266.5 u/L
- CREATININE [3]: 0.27 mg/dL
- GLUCOSE [3]: 133 mg/dL
- LACTATE DEHYDROGENASE [3]: 127 u/L
- LIPASE [3]: 11.67 u/L
- PHOSPHORUS [3]: 10.6 mg/dL
- POTASSIUM [3]: 6.17 MEQ/L
- SODIUM [3]: 142.68 MEQ/L
- TOTAL BILIRUBIN [3]: 0.15 mg/dL
- TOTAL PROTEIN [3]: 6.03 G/DL
- URIC ACID [3]: 0.75 mg/dL
- ABSOLUTE BASOPHIL [4]: 0 CELLS/uL
- ABSOLUTE EOSINOPHIL [4]: 0 CELLS/uL
- ABSOLUTE LYMPHOCYTE [4]: 5839.67 CELLS/uL
- ABSOLUTE MONOCYTE [4]: 204 CELLS/uL
- ABSOLUTE SEGMENTED NEUTROPHIL [4]: 256.33 CELLS/uL
- BASOPHIL [4]: 0%
- EOSINOPHIL [4]: 0%
- ERYTHROCYTE COUNT [4]: 4.55 x10E6/uL
- HEMATOCRIT [4]: 29%
- HEMOGLOBIN [4]: 11.47 G/DL
- LEUKOCYTE COUNT [4]: 6.3 x10E3/uL
- LYMPHOCYTE [4]: 93%
- MEAN CORPUSCULAR HEMOGLOBIN [4]: 25.37 pg
- MEAN CORPUSCULAR HEMOGLOBIN CONCENTRATION [4]: 39.7 G/DL
- MEAN CORPUSCULAR VOLUME [4]: 64 fL
- MONOCYTE [4]: 3%
- NEUTROPHIL [4]: 4%
- NUCLEATED RED BLOOD CELLS [4]: 0.33 /100WBC
- PLATELET COUNT [4]: 1104.33 x10E3/uL
- ALANINE AMINOTRANSFERASE [5]: 61 u/L
- ALBUMIN [5]: 4.2 G/DL
- ALKALINE PHOSPHATASE [5]: 326.33 u/L
- ASPARTATE AMINOTRANSFERASE [5]: 82 u/L
- BLOOD UREA NITROGEN [5]: 14 mg/dL
- CARBON DIOXIDE [5]: 39.33 mmol/L
- CHLORIDE [5]: 106.33 MEQ/L
- CHOLESTEROL [5]: 92.67 mg/dL
- CREATINE PHOSPHOKINASE [5]: 229 u/L
- CREATININE [5]: 0.21 mg/dL
- GLUCOSE [5]: 156.33 mg/dL
- LACTATE DEHYDROGENASE [5]: 82.67 u/L
- LIPASE [5]: 11 u/L
- PHOSPHORUS [5]: 9.27 mg/dL
- POTASSIUM [5]: 5.07 MEQ/L
- SODIUM [5]: 137.8 MEQ/L
- TOTAL BILIRUBIN [5]: 0.1 mg/dL
- TOTAL PROTEIN [5]: 6.23 G/DL
- URIC ACID [5]: 0.5 mg/dL
- ABSOLUTE BASOPHIL [6]: 0 CELLS/uL
- ABSOLUTE EOSINOPHIL [6]: 0 CELLS/uL
- ABSOLUTE LYMPHOCYTE [6]: 5125.67 CELLS/uL

— ChEMBL document CHEMBL3885881, “DrugMatrix”
